The results in this text go back to ChEMBL document CHEMBL1157048, “Synthesis and in vitro activity of limonene derivatives against Leishmania and Trypanosoma” (Eur J Med Chem, 2010).

The structures appear in SMILES notation.

The subject of one data set is Leishmania braziliensis. The data set is described as follows: Antileishmanial activity against Leishmania (Viannia) braziliensis promastigotes. The format is functional, organism-based.
The next data set concerns Leishmania amazonensis. The data set is described as follows: Antileishmanial activity against Leishmania amazonensis promastigotes after 48 hrs. The format is functional, organism-based.
For another data set, the system named is LLC-MK2. Kind of data set: Cytotoxicity against rhesus monkey LLC-MK2 cells after 48 hrs. It counts as cell-based. As to conditions: Macaca mulatta, LLC-MK2, 48 h.
The nature of data set [1]: Selectivity index, ratio of IC50 for rhesus monkey LLC-MK2 cells to IC50 for Leishmania amazonensis promastigotes. As to conditions: read-out: Ratio IC50. The format is toxicity, cell-based.
For data set [2], the system named is Trypanosoma cruzi. The data set is described as follows: Antitrypanosomal activity against Trypanosoma cruzi Tulahuen 2 assessed as inhibition of epimastigotes growth at 50 uM. It counts as functional. As to conditions: read-out: GI.
Data set [3] concerns Trypanosoma cruzi. The data set is described as follows: Antitrypanosomal activity against Trypanosoma cruzi Tulahuen 2 assessed as inhibition of epimastigotes growth. It counts as functional, organism-based.
The nature of data set [4]: Selectivity index, ratio of IC50 for rhesus monkey LLC-MK2 cells to IC50 for Leishmania (Viannia) braziliensis promastigotes. The format is toxicity, cell-based. As to conditions: read-out: Ratio IC50.
The nature of data set [5]: Selectivity index, ratio of IC50 for rhesus monkey LLC-MK2 cells to IC50 for Trypanosoma cruzi Tulahuen 2 epimastigotes. It counts as toxicity, cell-based. As to conditions: read-out: Ratio IC50.
The next data set deals with Leishmania sp. The data set is described as follows: Antileishmanial activity against Leishmania sp. by MTT assay. The format is functional, organism-based.

`CC1=CC[C@H](C(C)CCNc2ccccn2)CC1` (some centres undefined) displayed an IC50 in the data set on Leishmania braziliensis of 27 µM.

Take `CCCNCCC(C)[C@H]1CC=C(C)CC1` (mixture of isomers): the IC50 was 17.2 µM in the data set on Leishmania braziliensis, 53.5 µM in the data set on Leishmania amazonensis, 192 µM in the data set on LLC-MK2 and over 50 µM with Trypanosoma cruzi [3]. In addition, the selectivity ratio came out at 3.6 in [1] and 10 in data set [4]. In the data set on Trypanosoma cruzi [2], the inhibition of growth at 50 µM was 21%.

The molecule `CC1=CC[C@H](C(C)CCNC(C)C)CC1` (mixture of isomers) registered a 50% inhibitory concentration (IC50) in the data set with Leishmania braziliensis of 254 µM.

On to `CC1=CC[C@H](C(C)CCNCc2ccccc2)CC1` (mixture of isomers), for which the results for the 50% inhibitory concentration (IC50) with Leishmania braziliensis and in the data set with Trypanosoma cruzi [3] were 258 µM and 50 µM, respectively. Also, the inhibition of growth at 50 µM in the data set on Trypanosoma cruzi [2] was found to be 53.5%.

On to `CC1=CC[C@H](C(C)CCN2CCOCC2)CC1` (mixture of isomers), for which the IC50 with Leishmania braziliensis was 1030 µM; with Trypanosoma cruzi [3] it was over 50 µM. The inhibition of growth at 50 µM with Trypanosoma cruzi [2] was determined as 20.7%.

With `CC1=CC[C@H](C(C)CCN2CCNCC2)CC1` (mixture of isomers), the results for the IC50 in the data set with Leishmania braziliensis and in the data set on Trypanosoma cruzi [3] were 270 µM and 19.2 µM, respectively. In addition, the inhibition of growth at 50 µM with Trypanosoma cruzi [2] was 82.4%.

As for `CCCN(CCC(C)[C@H]1CC=C(C)CC1)S(=O)(=O)c1ccc(C)cc1` (mixture of isomers), the IC50 in the data set on Leishmania braziliensis is 12.1 µM; in the data set with Leishmania amazonensis, 196 µM; in the data set with LLC-MK2, over 1010 µM. Besides, the selectivity ratio is over 5.2 in [1] and 10 in [4].

As for `CC1=CC[C@H](C(C)CCNc2ccccc2)CC1` (mixture of isomers), the IC50 was 11.5 µM in the data set with Leishmania braziliensis, 89.8 µM in the data set with Leishmania amazonensis, 312 µM in the data set on LLC-MK2 and 29.5 µM in the data set on Trypanosoma cruzi [3]. The selectivity ratio came out at 3.5 in [1], 10.4 in data set [5] and 10 in data set [4]. In addition, the inhibition of growth at 50 µM in the data set with Trypanosoma cruzi [2] was 70.5%.

In the data set with Leishmania braziliensis, `CC1=CC[C@H](C(C)CCNc2ccc(Cl)cc2)CC1` (mixture of isomers) registered a 50% inhibitory concentration (IC50) of 58.4 µM.

`COc1ccc(NCCC(C)[C@H]2CC=C(C)CC2)cc1` (mixture of isomers): the IC50 in the data set on Leishmania braziliensis worked out at 57.6 µM.

The molecule `CC1=CC[C@H](C(C)CCNc2ccc(C)cc2)CC1` (mixture of isomers) had an IC50 with Leishmania braziliensis of 28 µM.

Take `CC1=CC[C@H](C(C)CCNCc2ccco2)CC1` (mixture of isomers): the values for the half-maximal inhibitory concentration (IC50) in the data set on Leishmania braziliensis and in the data set with Trypanosoma cruzi [3] were 35.6 µM and 50 µM, respectively. Also, in the data set on Trypanosoma cruzi [2], the inhibition of growth at 50 µM stood at 51.4%.

In turn, `CC1=CC[C@H](C(C)CCNc2cccc(C(F)(F)F)c2)CC1` (mixture of isomers) showed an IC50 in the data set with Leishmania braziliensis of 84.6 µM.

For the molecule `CC1=CC[C@H](C(C)CCN(C)c2ccccc2)CC1` (mixture of isomers), the IC50 in the data set with Leishmania braziliensis was 54.5 µM; in the data set on Trypanosoma cruzi [3] it was over 50 µM. In addition, the inhibition of growth at 50 µM in the data set with Trypanosoma cruzi [2] stood at 0%.

In the case of `CC1=CC[C@H](C(C)CCNCCO)CC1` (mixture of isomers), the IC50 was 23.2 µM in the data set on Leishmania braziliensis, 174 µM in the data set with Leishmania amazonensis, 587 µM in the data set on LLC-MK2 and over 50 µM in the data set on Trypanosoma cruzi [3]. Moreover, the selectivity ratio is 3.4 in [1] and 10 in [4]. The inhibition of growth at 50 µM in the data set on Trypanosoma cruzi [2] turned out to be 41.8%.

Take `C=C(C)[C@H]1CC=C(C)CC1` [D-LIMONENE]: the results for the IC50 in the data set with Leishmania sp., in the data set with Leishmania braziliensis and with Trypanosoma cruzi [3] were 185 µM, 876 µM and over 50 µM, respectively. The inhibition of growth at 50 µM with Trypanosoma cruzi [2] was determined as 0%.

Consider `CC1CS(=O)(=O)CCN1/N=C/c1ccc([N+](=O)[O-])o1` (centres undefined) [NIFURTIMOX], for which the inhibition of growth at 50 µM with Trypanosoma cruzi [2] came to 100%.

As for `N=C(N)c1ccc(OCCCCCOc2ccc(C(=N)N)cc2)cc1` [PENTAMIDINE], inhibition in the data set on Leishmania braziliensis was half-maximal at 48.5 µM (IC50).
